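Test compounds were applied to cells in 96-well plates for 48 hours at 5 doses. At the GI50, growth is halved.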 The source made the active and inactive calls. Rule as the data show it: active = GI50 up to about 1.1 µM and inactive = higher.
Experiments:
Assay in all cases: DTP human tumour cell line panel, 48 h
MDA-N = test system: MDA-N
MDA-MB-231 = test system: MDA-MB-231
ACHN = test system: ACHN
HL-60 = test system: HL-60
MOLT-4 = test system: MOLT-4
SK-MEL-28 = test system: SK-MEL-28
OVCAR-4 = test system: OVCAR-4
HOP-62 = test system: HOP-62
OVCAR-5 = test system: OVCAR-5
UO-31 = test system: UO-31
HT-29 = test system: HT-29
HOP-92 = test system: HOP-92
TK-10 = test system: TK-10
M14 = test system: M14
MCF7 = test system: MCF7
RXF 393 = test system: RXF 393
Malme-3M = test system: Malme-3M
NCI-H460 = test system: NCI-H460
LOX IMVI = test system: LOX IMVI
U-251 = test system: U-251
K562 = test system: K562
SF-539 = test system: SF-539
SNB-75 = test system: SNB-75
786-0 = test system: 786-0
RPMI-8226 = test system: RPMI-8226
UACC-257 = test system: UACC-257
Hs-578T = test system: Hs-578T
SF-268 = test system: SF-268
NCI/ADR-RES = test system: NCI/ADR-RES
SNB-19 = test system: SNB-19
A498 = test system: A498
SK-OV-3 = test system: SK-OV-3
PC-3 = test system: PC-3
EKVX = test system: EKVX
A549 = test system: A549
NCI-H23 = test system: NCI-H23
NCI-H522 = test system: NCI-H522
COLO 205 = test system: COLO 205
BT-549 = test system: BT-549
HCT-116 = test system: HCT-116
SF-295 = test system: SF-295
SK-MEL-5 = test system: SK-MEL-5
DU-145 = test system: DU-145
KM12 = test system: KM12
HCC 2998 = test system: HCC 2998
CAKI-1 = test system: CAKI-1
SK-MEL-2 = test system: SK-MEL-2
CCRF-CEM = test system: CCRF-CEM
IGROV-1 = test system: IGROV-1
OVCAR-3 = test system: OVCAR-3
OVCAR-8 = test system: OVCAR-8
UACC-62 = test system: UACC-62
T47D = test system: T47D
MDA-MB-435 = test system: MDA-MB-435
SW-620 = test system: SW-620
HCT-15 = test system: HCT-15
SN12C = test system: SN12C
NCI-H226 = test system: NCI-H226

Measured: GI50

O=C(O)c1cc2ccccc2c(S(=O)(=O)O)c1O
> 100 µM: HCT-15
inactive: MDA-N > 100 µM | MDA-MB-231 > 100 µM | ACHN > 100 µM | HL-60 > 100 µM | MOLT-4 > 100 µM | SK-MEL-28 > 100 µM | OVCAR-4 > 100 µM | HOP-62 > 100 µM | OVCAR-5 > 100 µM | UO-31 > 100 µM | HT-29 > 100 µM | HOP-92 > 100 µM | TK-10 > 100 µM | M14 > 100 µM | MCF7 > 100 µM | RXF 393 > 100 µM | Malme-3M > 100 µM | NCI-H460 > 100 µM | LOX IMVI > 100 µM | U-251 > 100 µM | K562 > 100 µM | SF-539 > 100 µM | SNB-75 > 100 µM | 786-0 > 100 µM | RPMI-8226 > 100 µM | UACC-257 > 100 µM | Hs-578T > 100 µM | SF-268 > 100 µM | NCI/ADR-RES > 100 µM | SNB-19 > 100 µM | A498 > 100 µM | SK-OV-3 > 100 µM | PC-3 > 100 µM | EKVX > 100 µM | A549 > 100 µM | NCI-H23 > 100 µM | NCI-H522 > 100 µM | COLO 205 > 100 µM | BT-549 > 100 µM | HCT-116 > 100 µM | SF-295 > 100 µM | SK-MEL-5 > 100 µM | DU-145 > 100 µM | KM12 > 100 µM | HCC 2998 > 100 µM | CAKI-1 > 100 µM | SK-MEL-2 > 100 µM | CCRF-CEM > 100 µM | IGROV-1 > 100 µM | OVCAR-3 > 100 µM | OVCAR-8 > 100 µM | UACC-62 > 100 µM | T47D > 100 µM | MDA-MB-435 > 100 µM | SW-620 > 100 µM | SN12C > 100 µM

CC(C)C1CC(CO)(CNc2nc(N)nc(Cl)c2C=O)C1 (configuration not stated)
inactive: MDA-N 2.85 µM | MDA-MB-231 2.45 µM | ACHN 5.35 µM | HL-60 1.57 µM | MOLT-4 2.15 µM | SK-MEL-28 1.88 µM | OVCAR-4 4.81 µM | HOP-62 18.8 µM | OVCAR-5 17.1 µM | UO-31 6.27 µM | HT-29 2.48 µM | HOP-92 2.28 µM | TK-10 > 66.8 µM | M14 1.77 µM | MCF7 10.3 µM | RXF 393 7.93 µM | Malme-3M 11.1 µM | NCI-H460 8.22 µM | LOX IMVI 2.04 µM | U-251 3.35 µM | K562 2.56 µM | SF-539 13.7 µM | SNB-75 7.87 µM | NCI-H226 8.95 µM | 786-0 31.3 µM | RPMI-8226 11 µM | UACC-257 2.49 µM | Hs-578T 4.38 µM | SF-268 4.79 µM | NCI/ADR-RES 6.03 µM | SNB-19 6.04 µM | A498 15.1 µM | SK-OV-3 6.79 µM | PC-3 2.1 µM | EKVX 4.51 µM | A549 12.9 µM | NCI-H23 2.22 µM | COLO 205 12.3 µM | BT-549 11.4 µM | HCT-116 2.84 µM | SF-295 16.6 µM | SK-MEL-5 6.89 µM | DU-145 14.6 µM | KM12 7.35 µM | HCC 2998 1.97 µM | CAKI-1 2.17 µM | SK-MEL-2 1.8 µM | CCRF-CEM 2.34 µM | IGROV-1 1.89 µM | OVCAR-3 3.47 µM | OVCAR-8 2.75 µM | UACC-62 2 µM | T47D 6.01 µM | MDA-MB-435 2.23 µM | SW-620 6.15 µM | SN12C 3.75 µM
4.43 µM: HCT-15
active: NCI-H522 0.604 µM

Cc1ccc(Cc2n[nH]c(=O)n2/N=C\CC/C=N\n2c(Cc3ccc(C)cc3)n[nH]c2=O)cc1
inactive: MDA-N 37.1 µM | MDA-MB-231 31.3 µM | ACHN 47.1 µM | HL-60 14.6 µM | MOLT-4 19.1 µM | SK-MEL-28 33.5 µM | OVCAR-4 > 100 µM | HOP-62 6.37 µM | OVCAR-5 > 100 µM | UO-31 > 100 µM | HT-29 28.8 µM | HOP-92 25.1 µM | TK-10 > 100 µM | M14 27.3 µM | MCF7 23.9 µM | RXF 393 20.9 µM | Malme-3M 33.2 µM | LOX IMVI 16.9 µM | U-251 19.2 µM | K562 96.8 µM | SF-539 3.99 µM | SNB-75 16.6 µM | NCI-H226 24.4 µM | 786-0 18.5 µM | RPMI-8226 57.9 µM | UACC-257 57.4 µM | Hs-578T 15.5 µM | SF-268 18 µM | NCI/ADR-RES 21.1 µM | SNB-19 39.6 µM | A498 90.4 µM | SK-OV-3 36.6 µM | PC-3 31.3 µM | EKVX 33.7 µM | A549 > 100 µM | NCI-H23 26.9 µM | NCI-H522 > 100 µM | COLO 205 > 100 µM | BT-549 23 µM | HCT-116 33.1 µM | SF-295 29.9 µM | SK-MEL-5 42.2 µM | DU-145 > 100 µM | KM12 > 100 µM | HCC 2998 > 100 µM | CAKI-1 > 100 µM | SK-MEL-2 28 µM | CCRF-CEM 4.1 µM | IGROV-1 33.3 µM | OVCAR-3 > 100 µM | OVCAR-8 17.8 µM | UACC-62 25.8 µM | T47D 38.6 µM | MDA-MB-435 36.3 µM | SW-620 43 µM | SN12C 44.7 µM
26 µM: HCT-15
